The source of these data is US20060134119A1, “Drugs containing galectin 9” (priority 2003, published 2006).

One data set deals with BALL-1. In words: Apoptosis analysis by PI method in BALL-1 cells. Format: cell-based. As to the method:
(§1) MOLT-4 (T cell), Jurkat (T cell), BALL-1 (B cell), THP-1 (acute monocytic leukemia derived cell), and HL60 (acute promyelotic leukemia derived cell) cells were obtained from American Type Culture Collection (ATCC). All the cell lines were maintained in an RPMI-1640 medium (Sigma, St. Louis, US) supplemented with 10% FCS in 5% Co2 at 37° C. Lactose (30 mM) was added to the culture medium to inhibit Gal-9 activity. The same concentration of sucrose was used as a control.
(§2) Cells that underwent apoptosis induction were centrifuged at 4° C. for 5 min at 1,000 rpm, and the cell pellet was resuspended in PBS (300 μL), and adjusted to a final concentration of 70% by gradually adding 100% cold ethanol (700 μL) to the suspended cells with vortexing. […] Stained cells were analyzed by flow cytometry (Sandstrom, K. et al., J Immunol Methods, 240: 55 (2000) and Zhang L. et al., Cancer Lett, 142: 129 (1999)) after removing aggregated cells through a nylon mesh and increasing the cell volume with PBS. […]
(§3) Apoptotic activity was measured by the PI method. […] Subsequently, incubation with PI leads to a reduction in the fluorescence intensity of apoptotic cells. Apoptosis was examined by the percentage of the cells wherein their fluorescence intensity was reduced. […]

The test system of another data set is Daudi. In words: Apoptosis analysis by PI method in Daudi cells. Format: cell-based. Conditions: incubation with galectin-9 at least 48 hr or more. As for the experimental part:
(§4) Apoptotic activity was measured by the PI method. When cells are incubated with galectin-9, washed, then subjected to alcohol-fixation, and fragmented DNAs flow out of the cell. Subsequently, incubation with PI leads to a reduction in the fluorescence intensity of apoptotic cells. Apoptosis was examined by the percentage of the cells wherein their fluorescence intensity was reduced. […] This induction was at the same level as H2O2 (hydrogen peroxide solution) that was used as a positive control. In addition, the same results were obtained by another method for examining apoptosis, TUNEL assay.

The subject of another data set is Jurkat. The data set can be described thus: Apoptosis analysis by PI method in Jurkat cells. Format: cell-based. As to the method:
as §1, §2, §3

For the next data set, the system named is KATO-III. The data set can be described thus: Apoptosis analysis by PI method in KATO-III cells. Conditions: incubation with galectin-9 at least 48 hr or more. In kind it is cell-based. As for the experimental part: as §4
The next data set concerns normal lymphocytes. Conditions: Normal Lymphocyte; 16 hr incubation with 1 mM galectin-9; PI, FACS. As for the experimental part: (§5) Cytotoxicities in Jurkat T cells, K-562 leukemic cells, and normal lymphocytes were measured by flow cytometry analysis using PI. That is, PI invades into the damaged target cells when PI is added for the last 15 min of 16 hr incubation with 1 mM galectin-9. Fluorescence generated by PI is measured by FACS. Untreated cells were used as a negative control group, formalin-fixed cells as a 100% dead cell group, and H2O2 (hydrogen peroxide solution)-treated cells as a positive control group, respectively.

A further data set has as its system K-562 leukemic cells. The conditions noted are these: 16 hr incubation with 1 mM galectin-9, PI, FACS. As to the method:
as §5

Another data set deals with Jurkat T cells. The conditions noted are these: 16 hr incubation with 1 mM galectin-9, PI, FACS. As for the experimental part:
as §5

A further data set concerns CD4 T Cell. In words: Apoptosis induction in non-activated normal CD4 T cells (Table 4). In kind it is cell-based. The conditions noted are these: 1 μM galectin-9, 1 μM galectin-3. As for the experimental part:
For example, measurements of apoptosis induction in the presence of 1 μM galectin-9 are as shown in Table 4 below (also 1 μM for galectin-3 in Table 4).

“Galectin-9: Recombinant human galectin-9 expressed in E. coli and purified on lactose-agarose”: the “apoptosis induction, Gal9 (+)” value is reported as 26.0 in the data set with BALL-1 (BALL-1, incubation with galectin-9 at least 48 hr or more); 58.5 in the data set with Daudi; 66.6 in the data set with Jurkat (Jurkat, incubation with galectin-9 at least 48 hr or more); 30.5 in the data set on KATO-III. The apoptosis induction entry in the data set on BALL-1 (rGal-9 1 μM, 24 hr, FIG. 3) is “induced”; in the data set with Jurkat (rGal-9 1 μM, 24 hr, FIG. 3) it was “induced”. Moreover, the results for the “cytotoxicity, 16 hours” value in the data set on normal lymphocytes, in the data set with K-562 leukemic cells and in the data set with Jurkat T cells were 2.47, 23.4 and 46.2, respectively. In the data set with CD4 T Cell, the “apoptosis induction, CD4 T Cell Resting” value came out at 1.8.
